# Reference: patent US7220758B2, “Ether substituted imidazopyridines” (3M Innovative Properties Company, priority 2002, dated 2007)
# Counter-ions that a name gives are not always drawn.
row,Structure (SMILES),melting point [°C]
1,CCCc1nc2c(N)nc(C)c(C)c2n1CCCCCS(=O)(=O)c1ccc(OC)cc1,130.5 to 132
2,"CCCc1nc2c(N)nc(C)c(C)c2n1CCCS(=O)(=O)c1ccc(C(=O)O)cc1 (as salt: hydrochloride) [Example 100, 4-[3-(4-Amino-6,7-dimethyl-2-propyl-1II-imidazo[4,5-c]pyridin-1-yl)propane-1-sulfonyl]benzoic acid hydrochloride]",> 250
3,"Cc1nc(N)c2nc(C)n(CCOCCN)c2c1C (as salt: salt) [Example 14, 1-[2-(2-Aminoethoxy)ethyl]-2,6,7-trimethyl-1H-imidazo[4,5-c]pyridin-4-amine]",130 to 133
4,"Cc1nc(N)c2nc(C)n(CCOCCNC(=O)N3CCOCC3)c2c1C (as salt: salt) [Example 15, N-{2-[2-(4-Amino-2,6,7-trimethyl-1H-imidazo[4,5-c]pyridin-1-yl)ethoxy]ethyl}morpholine-4-carboxamide]",205 to 207
5,"CCCCc1nc2c(N)nc(C)c(C)c2n1CCOc1ccccc1 [Example 3, 2-Butyl-6,7-dimethyl-1-(2-phenoxyethyl)-1H-imidazo[4,5-c]pyridin-4-amine]",130 to 132
6,"Cc1nc(N)c2nc(C)n(CCOCCCc3ccccc3)c2c1C [Example 8, 2,6,7-Trimethyl-1-[2-(3-phenylpropoxy)ethyl]-1H-imidazo[4,5-c]pyridin-4-amine]",118.1 to 119
7,"Cc1nc(N)c2nc(C)n(CCOCCCc3cccnc3)c2c1C [Example 10, 2,6,7-Trimethyl-1-[2-(3-pyridin-3-ylpropoxy)ethyl]-1H-imidazo[4,5-c]pyridin-4-amine]",108.6 to 109.5
8,"CCOCc1nc2c(N)nc(C)c(C)c2n1CCOCCCc1cccnc1 [Example 11, 2-(Ethoxymethyl)-6,7-dimethyl-1-[2-(3-pyridin-3-ylpropoxy)ethyl]-1H-imidazo[4,5-c]pyridin-4-amine]",78 to 78.5
9,"Cc1nc(N)c2nc(C)n(CCCCCSc3ccccc3)c2c1C [Example 13, 2,6,7-Trimethyl-1-[5-(phenylthio)pentyl]-1H-imidazo[4,5-c]pyridin-4-amine]",181 to 183
10,"Cc1nc(N)c2nc(C)n(CCCCCS(C)(=O)=O)c2c1C [Example 78, 1-[5-(Methanesulfonyl)pentyl]-2,6,7-trimethyl-1H-imidazo[4,5-c]pyridin-4-amine]",199 to 200
11,"CCOCc1nc2c(N)nc(C)c(C)c2n1CCOCCCc1nccs1 [Example 82, 2-(Ethoxymethyl)-6,7-dimethyl-1-{2-[3-(1,3-thiazol-2-yl)propoxy]ethyl}-1H-imidazo[4,5-c]pyridin-4-amine]",91 to 92
12,"CCCc1nc2c(N)nc(C)c(C)c2n1CCCCS(C)(=O)=O [Example 89, 1-[4-(Methanesulfonyl)butyl]-6,7-dimethyl-2-propyl-1H-imidazo[4,5-c]pyridin-4-amine]",152 to 153
13,"CCCc1nc2c(N)nc(C)c(C)c2n1CCCS(C)(=O)=O [Example 90, 1-[3-(Methanesulfonyl)propyl]-6,7-dimethyl-2-propyl-1H-imidazo[4,5-c]pyridin-4-amine]",153.5 to 155
14,"CCCc1nc2c(N)nc(C)c(C)c2n1CCCCCCS(C)(=O)=O [Example 91, 1-[6-(Methanesulfonyl)hexyl]-6,7-dimethyl-2-propyl-1H-imidazo[4,5-c]pyridin-4-amine]",157 to 158
15,"CCCc1nc2c(N)nc(C)c(C)c2n1CCCCCS(=O)(=O)c1ccc(F)cc1 [Example 92, 1-[5-(4-Fluorobenzenesulfonyl)pentyl]-6,7-dimethyl-2-propyl-1H-imidazo[4,5-c]pyridin-4-amine]",130 to 132
16,"CCCc1nc2c(N)nc(C)c(C)c2n1CCCCCS(=O)(=O)c1ccc(F)cc1F [Example 93, 1-[5-(2,4-Difluorobenzenesulfonyl)pentyl]-6,7-dimethyl-2-propyl-1H-imidazo[4,5-c]pyridin-4-amine]",130 to 132
17,"CCCc1nc2c(N)nc(C)c(C)c2n1CCCCCS(C)(=O)=O [Example 96, 1-[5-(Methanesulfonyl)pentyl]-6,7-dimethyl-2-propyl-1H-imidazo[4,5-c]pyridin-4-amine]",145 to 146
18,"CCc1nc2c(N)nc(C)c(C)c2n1CCOCCNC(=O)N1CCOCC1 [Example 103, N-{2-[2-(4-Amino-2-ethyl-6,7-dimethyl-1H-imidazo[4,5-c]pyridin-1-yl)ethoxy]ethyl}morpholine-4-carboxamide]",182 to 184

# Other lines, results leading:
row,melting point [°C],Structure (SMILES)
1,172 to 173.5,CCCc1nc2c(N)nc(C)c(C)c2n1CCCCCS(=O)(=O)c1ccc(C(F)(F)F)cc1
2,134 to 136,CCCc1nc2c(N)nc(C)c(C)c2n1CCCCCS(=O)(=O)c1ccccc1
3,186.5 to 188,CCCc1nc2c(N)nc(C)c(C)c2n1CCCS(=O)(=O)c1ccc(Cl)cc1
4,128 to 130,"CCOCc1nc2c(N)nc(C)c(C)c2n1CCOCCCc1ccccc1 (as salt: hydrochloride) [Example 123, 2-Ethoxymethyl-6,7-dimethyl-1-[2-(3-phenylpropoxy)ethyl]-1H-imidazo[4,5-c]pyridin-4-amine hydrochloride]"
5,179.5 to 182,"Cc1nc(N)c2nc(C)n(CCOCCNC(=O)C(C)C)c2c1C (as salt: salt) [Example 16, N-{2-[2-(4-Amino-2,6,7-trimethyl-1H-imidazo[4,5-c]pyridin-1-yl)ethoxy]ethyl}-2-methylpropanamide]"
6,197 to 199,"Cc1nc(N)c2ncn(CCOc3ccccc3)c2c1C [Example 1, 6,7-Dimethyl-1-(2-phenoxyethyl)-1H-imidazo[4,5-c]pyridin-4-amine]"
7,176 to 177,"Cc1nc(N)c2nc(C)n(CCOc3ccccc3)c2c1C [Example 2, 2,6,7-Trimethyl-1-(2-phenoxyethyl)-1H-imidazo[4,5-c]pyridin-4-amine]"
8,107.3 to 108.2,"CCOCc1nc2c(N)nc(C)c(C)c2n1CCOCc1ccccc1 [Example 4, 1-[2-(Benzyloxy)ethyl]-2-(ethoxymethyl)-6,7-dimethyl-1H-imidazo[4,5-c]pyridin-4-amine]"
9,136.8 to 137.5,"Cc1nc(N)c2nc(C)n(CCOCc3ccccc3)c2c1C [Example 5, 1-[2-(Benzyloxy)ethyl]-2,6,7-trimethyl-1H-imidazo[4,5-c]pyridin-4-amine]"
10,99.5 to 100,"CCCc1nc2c(N)nc(C)c(C)c2n1CCOCc1ccccc1 [Example 6, 1-[2-(Benzyloxy)ethyl]-6,7-dimethyl-2-propyl-1H-imidazo[4,5-c]pyridin-4-amine]"
11,186.8 to 187.5,"Cc1nc(N)c2nc(C)n(CCOCC#Cc3ccccc3)c2c1C [Example 7, 2,6,7-Trimethyl-1-{2-[(3-phenylprop-2-ynyl)oxy]ethyl}-1H-imidazo[4,5-c]pyridin-4-amine]"
12,143.7 to 144.8,"Cc1nc(N)c2nc(C)n(CCOC/C=C/c3ccccc3)c2c1C [Example 9, 2,6,7-Trimethyl-1-(2-{[(2E)-3-phenylprop-2-enyl]oxy}ethyl)-1H-imidazo[4,5-c]pyridin-4-amine]"
13,121 to 122,"CSCCCCCn1c(C)nc2c(N)nc(C)c(C)c21 [Example 12, 2,6,7-Trimethyl-1-[5-(methylthio)pentyl]-1H-imidazo[4,5-c]pyridin-4-amine]"
14,127 to 128,"CCOCc1nc2c(N)nc(C)cc2n1CCOCc1ccccc1 [Example 80, 1-[2-(Benzyloxy)ethyl]-2-(ethoxymethyl)-6-methyl-1H-imidazo[4,5-c]pyridin-4-amine]"
15,195 to 196,"Cc1nc(N)c2ncn(CCOCc3ccncc3)c2c1C [Example 84, 6,7-Dimethyl-1-[2-(pyridin-4-ylmethoxy)ethyl]-1H-imidazo[4,5-c]pyridin-4-amine]"
16,147 to 149,"CCCc1nc2c(N)nc(C)c(C)c2n1CCCCCS(=O)(=O)c1ccc(Cl)cc1 [Example 85, 1-[5-(4-Chlorobenzenesulfonyl)pentyl]-6,7-dimethyl-2-propyl-1H-imidazo[4,5-c]pyridin-4-amine]"
17,143 to 144.5,"CCCc1nc2c(N)nc(C)c(C)c2n1CCCCCS(=O)(=O)c1ccccn1 [Example 87, 6,7-Dimethyl-2-propyl-1-[5-(pyridine-2-sulfonyl)pentyl]-1H-imidazo[4,5-c]pyridin-4-amine]"
18,130 to 131.5,"CCCc1nc2c(N)nc(C)c(C)c2n1CCCCCS(=O)(=O)c1ccc(Cl)cc1Cl [Example 95, 1-[5-(2,4-Dichlorobenzenesulfonyl)pentyl]-6,7-dimethyl-2-propyl-1H-imidazo[4,5-c]pyridin-4-amine]"
19,172 to 173.5,"CCCc1nc2c(N)nc(C)c(C)c2n1CCCS(=O)(=O)c1ccccn1 [Example 98, 6,7-Dimethyl-2-propyl-1-[3-(pyridine-2-sulfonyl)propyl]-1H-imidazo[4,5-c]pyridin-4-amine]"
20,169 to 171,"CCCc1nc2c(N)nc(C)c(C)c2n1CCCS(=O)(=O)c1ccc(C(=O)OCC)cc1 [Example 99, 4-[3-(4-Amino-6,7-dimethyl-2-propyl-1H-imidazo[4,5-c]pyridin-1-yl)propane-1-sulfonyl]benzoic acid ethyl ester]"
21,224 to 226,"CCCc1nc2c(N)nc(C)c(C)c2n1CCCS(=O)(=O)c1ccc(C(=O)N2CCOCC2)cc1 [Example 101, {4-[3-(4-Amino-6,7-dimethyl-2-propyl-1H-imidazo[4,5-c]pyridin-1-yl)propane-1-sulfonyl]phenyl}morpholin-4-ylmethanone]"
22,145 to 147,"CCc1nc2c(N)nc(C)c(C)c2n1CCOCCNS(C)(=O)=O [Example 102, N-{2-[2-(4-Amino-2-ethyl-6,7-dimethyl-1H-imidazo[4,5-c]pyridin-1-yl)ethoxy]ethyl}methanesulfonamide]"
23,170 to 172,"CCc1nc2c(N)nc(C)c(C)c2n1CCOCCNC(=O)C1CCCCC1 [Example 104, N-{2-[2-(4-Amino-2-ethyl-6,7-dimethyl-1H-imidazo[4,5-c]pyridin-1-yl)ethoxy]ethyl}cyclohexanecarboxamide]"
24,187 to 189,CCc1nc2c(N)nc(C)c(C)c2n1CCOCCNC(=O)NC1CCCCC1 [Example 105]
